Reference: US6602664B2 (priority 1998, dated 2003)
Counter-ions that a name gives are not always drawn. Like-named read-outs stand apart in the source and are kept apart here.

Legend:
[1] = tested on: HIV-1 replication in human PBM cells; experiment: microbe, parasite or virus in culture; format: cell-based
Description: Cells and viruses. […] Antimicrobial Agents Chemother 1992;36(11): 2423-2431.
Cell pellets were washed, centrifuged, lysed and the proviral DNA extracted as previously described. Cytotoxicity of the compounds was determined using the Promega Cell Titer 96 dye uptake assay (Madison, Wis.) in 1-2 day PHA-stimulated PBM cells after 5 days in culture. The median effective concentration (EC50) and inhibitory concentration (IC50) were derived from the computer-generated median effect plot of the dose-effect data, as described previously.

[2] = tested on: recombinant HIV-1 virus isolates; format: cell-based
Text: The aim of the study was to determine the potency of the inhibitory effect of a new generation of NRTIs on Multi Drug Resistant isolates and to compare it with their effect on wild-type HIV-1 isolates. All recombinant viruses were taken from the VIRCO repository of phenotypically and genotypically characterized virus isolates. Hirsch et al. Antiretroviral Drug Resistance Testing in Adults with HIV Infection. JAMA; 1998: 79(24) 1984-1991. See also Pauwels et al. Comprehensive HIV drug Resistance monitoring using rapid, high-throughput phenotypic and genotypic assays with correlative data analysis. Antiviral Therapy, 1998: 3: 35 Abstract 51.
Phenotypic drug susceptibility determination of recombinant virus isolates is described in Hertogs et al. A Rapid Method for Simultaneous Detection of Phentypic Resistance to Inhibitors of Protease and Reverse Transcriptase in Recombinant HIV-1 Isolates from Patients Treated with Antiretroviral Drugs. Antimicrob. Agents Chemother. 1998; 42(2): 269-276. The basic principle of the Antivirogram® technology is the construction of chimeric HIV-1 strains composed of the protease (PR) and reverse transcriptase (RT) gene sequences which are isolated and amplified from patient viral RNA. Amplicons are subsequently transfected into CD4+T cells together with a standard laboratory isogenic (HXB2) HIV-1 DNA construct from which the PR/RT gene sequences were deleted. After homologous recombination, new viruses whose diversity reflects the original population amplified from the plasma are produced at high level from these cells.
The virus infectivity (CCID50) is determined by an end-point dilution method. The titer is calculated from the degree of infection, measured by the intensity of reporter-gene signal as generated by serial dilutions of the virus shock. The chimeric (clinical isolates and wild-type reference) viruses are then analyzed for their phenotypic sensitivity (i.e. susceptibility) to the different PR and RT-inhibitors in an automated reporter gene-based assay using serial dilutions of the compound. The standardisation of the Antivirogram®n assay allows for simultaneous testing of all clinically approved drugs in one 384-well microtiter plate. The experimental drugs are included in separate plates. Each plate contains multiple replicates of mock-infected wells, virus-infection control wells and blank (medium-only) well. All plates are tested in duplicate. 50% Inhibitory concentrations are calculated based on reporter signals obtained through optical reading of 384-well plates containing serial dilutions of compounds, a normalised quantity of virus and by taking into account all relevant control wells. Approval (or not) is done according to critical ranges and settings as described in the corresponding VIRCO Standard Operating Procedure.
A more detailed description of the protocol is as follows. Samples were stored frozen. […] To confirm the genotypic pattern, genotyping (ABI-sequencing) was performed after recombination and culture of the laboratory strains by analysis of cell viability, calculation of results (dose-response curves, IC50 values), and reporting of data.

Nc1ccn([C@@H]2CS[C@H](CO)O2)c(=O)n1 [3TC, (−)-β-2′,3′-dideoxy-3′-thiacytidine]
EC50 ([1]; Human immunodeficiency virus 1, PBMC, Table 2, human PBMC): 6.7 nM
EC90 ([1]; Human immunodeficiency virus 1, PBMC, Table 2, human PBMC, read-out: EC90): 51 nM
m ± SE (slope of median effect plot) ([1]; Table 2, human PBMC): 1.08 ± 0.15
fold Resistance ([2]; RT genotype D67D/N, K70R, M184V, G333E): >99
fold Resistance ([2]; RT genotype D67N, K70R, K219Q/K, 181C/Y): 3.7
fold Resistance ([2]; RT genotype K70R, K219Q): 1
fold Resistance ([2]; RT genotype M41L, D67N, K70R, K103N, L210W, T215Y, K219N/K): 8.25
fold Resistance ([2]; RT genotype M41L, L210L, T215Y, Y181C/Y, M184M/V): 3
fold Resistance ([2]; RT genotype M41L, L210W, T215Y): 0.4
fold Resistance ([2]; RT genotype M41L, T69S-V-T, L210W, T215Y, G333E): >65
fold Resistance ([2]; RT genotype M41L, T215Y, M184V): >99
fold Resistance ([2]; RT genotype T69G, Q151M, M184V/M): >65
fold Resistance ([2]; RT genotype T69I, K70R, Q151M, M184V): >65
fold Resistance ([2]; RT genotype T69S-E, M184I, T215Y): >65
fold Resistance ([2]; RT genotype T215Y): 1.5
fold Resistance ([2]; recombinant isolate, RT genotype K70R): 1

Nc1nc(N)c2ncn([C@H]3CO[C@@H](CO)O3)c2n1 [DAPD, β-D-dioxolanyl-2,6-diaminopurine]
EC50 ([1]; Table 3, human PBMC): 1810 nM
m ± SE (slope of median effect plot) ([1]; Table 3, human PBMC): 1.40 ± 0.14
EC90 ([1]; Table 3, human PBMC, read-out: EC90): 8680 nM

CC(C)(C)NC(=O)[C@@H]1CN(Cc2cccnc2)CCN1C[C@@H](O)C[C@@H](Cc1ccccc1)C(=O)N[C@H]1c2ccccc2C[C@H]1O [Indinavir, {1(1,S,2R),5(S)]-2,3,5-trideoxy-N-(2,3-dihydro-2-hydroxy-1H-inden-1-yl)-5-[2-[[(1,1-dimethylethyl)amino]carbonyl]4-(3-pyridinylmethyl)-1-piperazinyl]-2-(phenylmethyl)-D-erythro-pentoamide sulfate]
m ± SE (slope of median effect plot) [1]: 0.86 ± 0.17
EC90 ([1]; Human immunodeficiency virus 1, PBMC): 19 nM
inhibition at 1 µM ([1]; Human immunodeficiency virus 1, PBMC, 144 h, concentration 0.001 mM, day 6, read-out: Inhibition %): 29.9%
inhibition at 10 µM ([1]; Human immunodeficiency virus 1, PBMC, 144 h, concentration 0.01 mM, day 6, read-out: Inhibition %): 88.7%
EC50 ([1]; Human immunodeficiency virus 1, PBMC, Table 3A, human PBMC): 1.5 nM
